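48-hour exposure; five concentrations; linearly interpolated endpoints. The concentration for 50% growth inhibition is given as GI50. The concentration for full growth arrest is given as TGI.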
test system: UO-31 renal; experiment: NCI anticancer screen, dose series, 48 h

`COc1ccc(NC(=O)CCc2cc(-c3ccc(O)c(OC)c3)nc(NC#N)n2)cc1` and `COC(=O)c1cc2c3ccccc3n(C(C)=O)c2cn1` cannot be ordered by TGI: over 100 µM for the first, over 100 µM for the second.

Compared with `Cc1cc(Br)cc(C)c1NC(=O)C(=O)C(C(=O)c1ccc2ccccc2c1)C1OC(=O)c2ccccc21` (stereo not given), `CC(C)(C)OC(=O)NCC(=O)OCc1ccccc1` is higher in TGI: 30.3 µM for the first, over 100 µM for the second.

Going from `Cc1ccc(SC(C)/C=C/NNC2=NC(c3ccccc3)C(c3ccccc3)=NN2)cc1` (stereo not given) to `CC(C)(C)[SiH]12(OC(C(F)(F)F)(C(F)(F)F)c3ccccc31)OC(C(F)(F)F)(C(F)(F)F)c1ccccc12`, the TGI falls from 57.5 µM to 19.2 µM (3-fold).

`O=C1OC(c2ccccc2)=N/C1=C/C=C/c1ccco1` and `Cc1ccccc1N1C(=O)/C(=C/c2ccc(N(CCC#N)CCC#N)cc2)N=C1c1cc([N+](=O)[O-])ccc1Cl` cannot be ordered by TGI: over 100 µM for the first, over 100 µM for the second.

`Cc1ccc(S(=O)(=O)NCC2CCCCC2=O)cc1` (stereo not given) and `CNC(=S)NC1CCCCC1NC(=S)NC` (stereo not given) cannot be ordered by TGI: over 100 µM for the first, over 100 µM for the second.

Molecule `C=CC1CC12C(=O)C1OC2(C)C2C(=O)c3cc4ccccc4cc3C(=O)C12` (stereo not given) has a TGI of over 100 µM.

`C=CC1CC12C(=O)C1OC2(C)C2C(=O)c3cc4ccccc4cc3C(=O)C12` (stereo not given) was tested, and the GI50 was 53.3 µM.

test system: A549 NSCLC; experiment: NCI anticancer screen, dose series, 48 h

`O=[n+]1c2c(n([O-])c3ccccc31)CCCCCCCCCC2` and `CNC(=S)N(C)C(=S)Nn1c(=O)c(C)nn(C)c1=S` cannot be ordered by TGI: over 100 µM for the first, over 100 µM for the second.

`O=C1CCCC/C(=C/c2ccccc2)N1` and `O=C1CN=C(C[N+](=O)[O-])c2ccccc21` cannot be ordered by TGI: over 100 µM for the first, over 100 µM for the second.

`CCCCN(CCCC)CC(C(=O)Nc1ccc([N+](=O)[O-])cc1[N+](=O)[O-])/C(C)=N\NC(=S)NN` (stereo not given) and `S=C(N/N=C/c1ccco1)NC12CC3CC(CC(C3)C1)C2` cannot be ordered by TGI: over 100 µM for the first, over 100 µM for the second.

`CC(=O)O.CC(=O)O.CC(=O)O.CC(=O)O.CC(=O)O.CC(=O)O.O.[Ti].[Ti]` and `COc1ccc(NC(=O)CCc2cc(-c3ccc(O)c(OC)c3)nc(NC#N)n2)cc1` cannot be ordered by TGI: over 100 µM for the first, over 100 µM for the second.

`COC(=O)c1cc2c3ccccc3n(C(C)=O)c2cn1` and `Cc1cc(Br)cc(C)c1NC(=O)C(=O)C(C(=O)c1ccc2ccccc2c1)C1OC(=O)c2ccccc21` (stereo not given) cannot be ordered by TGI: over 100 µM for the first, over 100 µM for the second.

`CC(C)(C)OC(=O)NCC(=O)OCc1ccccc1` and `Cc1ccc(SC(C)/C=C/NNC2=NC(c3ccccc3)C(c3ccccc3)=NN2)cc1` (stereo not given) cannot be ordered by TGI: over 100 µM for the first, over 100 µM for the second.

Going from `CC(C)(C)[SiH]12(OC(C(F)(F)F)(C(F)(F)F)c3ccccc31)OC(C(F)(F)F)(C(F)(F)F)c1ccccc12` to `O=C1OC(c2ccccc2)=N/C1=C/C=C/c1ccco1`, the TGI rises from 19.9 µM to over 100 µM.

`Cc1ccc(S(=O)(=O)NCC2CCCCC2=O)cc1` (stereo not given) and `CNC(=S)NC1CCCCC1NC(=S)NC` (stereo not given) cannot be ordered by TGI: over 100 µM for the first, over 100 µM for the second.

`C=CC1CC12C(=O)C1OC2(C)C2C(=O)c3cc4ccccc4cc3C(=O)C12` (stereo not given) showed a TGI of over 100 µM.

Work on `OCCN1CN(CCO)CN(c2nc(N3CN(CCO)CN(CCO)C3)nc(N3CN(CCO)CN(CCO)C3)n2)C1` yielded a TGI of 69.5 ng/mL.

Going from `CC(=O)O.CC(=O)O.CC(=O)O.CC(=O)O.CC(=O)O.CC(=O)O.O.[Ti].[Ti]` to `C=CC1CC12C(=O)C1OC2(C)C2C(=O)c3cc4ccccc4cc3C(=O)C12` (stereo not given), the GI50 falls from over 100 µM to 38.3 µM.

test system: SK-MEL-5 melanoma; experiment: NCI anticancer screen, dose series, 48 h

`CNC(=S)N(C)C(=S)Nn1c(=O)c(C)nn(C)c1=S` and `O=C1CN=C(C[N+](=O)[O-])c2ccccc21` cannot be ordered by TGI: over 100 µM for the first, over 100 µM for the second.

`CCCCN(CCCC)CC(C(=O)Nc1ccc([N+](=O)[O-])cc1[N+](=O)[O-])/C(C)=N\NC(=S)NN` (stereo not given) and `S=C(N/N=C/c1ccco1)NC12CC3CC(CC(C3)C1)C2` cannot be ordered by TGI: over 100 µM for the first, over 100 µM for the second.

`CC(=O)O.CC(=O)O.CC(=O)O.CC(=O)O.CC(=O)O.CC(=O)O.O.[Ti].[Ti]` and `COC(=O)c1cc2c3ccccc3n(C(C)=O)c2cn1` cannot be ordered by TGI: over 100 µM for the first, over 100 µM for the second.

`Cc1cc(Br)cc(C)c1NC(=O)C(=O)C(C(=O)c1ccc2ccccc2c1)C1OC(=O)c2ccccc21` (stereo not given) and `Cc1ccc(SC(C)/C=C/NNC2=NC(c3ccccc3)C(c3ccccc3)=NN2)cc1` (stereo not given) are within 1.5-fold of each other in TGI: 23.8 µM for the first, 31.4 µM for the second.

Compared with `CC(C)(C)[SiH]12(OC(C(F)(F)F)(C(F)(F)F)c3ccccc31)OC(C(F)(F)F)(C(F)(F)F)c1ccccc12`, `O=C1OC(c2ccccc2)=N/C1=C/C=C/c1ccco1` is higher in TGI: 22.1 µM for the first, over 100 µM for the second.

`Cc1ccccc1N1C(=O)/C(=C/c2ccc(N(CCC#N)CCC#N)cc2)N=C1c1cc([N+](=O)[O-])ccc1Cl` and `Cc1ccc(S(=O)(=O)NCC2CCCCC2=O)cc1` (stereo not given) cannot be ordered by TGI: over 100 µM for the first, over 100 µM for the second.

For `CNC(=S)NC1CCCCC1NC(=S)NC` (stereo not given), the TGI was over 100 µM.

Work on `OCCN1CN(CCO)CN(c2nc(N3CN(CCO)CN(CCO)C3)nc(N3CN(CCO)CN(CCO)C3)n2)C1` yielded a GI50 of 0.891 ng/mL.

`OCCN1CN(CCO)CN(c2nc(N3CN(CCO)CN(CCO)C3)nc(N3CN(CCO)CN(CCO)C3)n2)C1` was tested, and the TGI was 1.74 ng/mL.

In the case of `CC(=O)O.CC(=O)O.CC(=O)O.CC(=O)O.CC(=O)O.CC(=O)O.O.[Ti].[Ti]`, the GI50 is reported as over 100 µM.

test system: U251 CNS; experiment: NCI anticancer screen, dose series, 48 h

`O=[n+]1c2c(n([O-])c3ccccc31)CCCCCCCCCC2` and `CNC(=S)N(C)C(=S)Nn1c(=O)c(C)nn(C)c1=S` cannot be ordered by TGI: over 100 µM for the first, over 100 µM for the second.

`O=C1CCCC/C(=C/c2ccccc2)N1` and `O=C1CN=C(C[N+](=O)[O-])c2ccccc21` cannot be ordered by TGI: over 100 µM for the first, over 100 µM for the second.

`CCCCN(CCCC)CC(C(=O)Nc1ccc([N+](=O)[O-])cc1[N+](=O)[O-])/C(C)=N\NC(=S)NN` (stereo not given) and `S=C(N/N=C/c1ccco1)NC12CC3CC(CC(C3)C1)C2` cannot be ordered by TGI: over 100 µM for the first, over 100 µM for the second.

`CC(=O)O.CC(=O)O.CC(=O)O.CC(=O)O.CC(=O)O.CC(=O)O.O.[Ti].[Ti]` and `COc1ccc(NC(=O)CCc2cc(-c3ccc(O)c(OC)c3)nc(NC#N)n2)cc1` cannot be ordered by TGI: over 100 µM for the first, over 100 µM for the second.

First: COC(=O)c1cc2c3ccccc3n(C(C)=O)c2cn1
Second: Cc1cc(Br)cc(C)c1NC(=O)C(=O)C(C(=O)c1ccc2ccccc2c1)C1OC(=O)c2ccccc21 (stereo not given)
The TGI of the first is higher: over 100 µM for the first, 18.7 µM for the second.

First: CC(C)(C)OC(=O)NCC(=O)OCc1ccccc1
Second: CC(C)(C)[SiH]12(OC(C(F)(F)F)(C(F)(F)F)c3ccccc31)OC(C(F)(F)F)(C(F)(F)F)c1ccccc12
The TGI of the first is higher: over 100 µM for the first, 6.19 µM for the second.

`O=C1OC(c2ccccc2)=N/C1=C/C=C/c1ccco1` and `Cc1ccccc1N1C(=O)/C(=C/c2ccc(N(CCC#N)CCC#N)cc2)N=C1c1cc([N+](=O)[O-])ccc1Cl` cannot be ordered by TGI: over 100 µM for the first, over 100 µM for the second.

`Cc1ccc(S(=O)(=O)NCC2CCCCC2=O)cc1` (stereo not given) and `CNC(=S)NC1CCCCC1NC(=S)NC` (stereo not given) cannot be ordered by TGI: over 100 µM for the first, over 100 µM for the second.

Work on `C=CC1CC12C(=O)C1OC2(C)C2C(=O)c3cc4ccccc4cc3C(=O)C12` (stereo not given) yielded a TGI of 56.7 µM.

Compared with `CC(=O)O.CC(=O)O.CC(=O)O.CC(=O)O.CC(=O)O.CC(=O)O.O.[Ti].[Ti]`, `C=CC1CC12C(=O)C1OC2(C)C2C(=O)c3cc4ccccc4cc3C(=O)C12` (stereo not given) is lower in GI50: over 100 µM for the first, 21.1 µM for the second.

test system: SF-268 CNS; experiment: NCI anticancer screen, dose series, 48 h

`O=[n+]1c2c(n([O-])c3ccccc31)CCCCCCCCCC2` and `O=C1CCCC/C(=C/c2ccccc2)N1` cannot be ordered by TGI: over 100 µM for the first, over 100 µM for the second.

`CNC(=S)N(C)C(=S)Nn1c(=O)c(C)nn(C)c1=S` and `CNC(=S)NC1CCCCC1NC(=S)NC` (stereo not given) cannot be ordered by TGI: over 100 µM for the first, over 100 µM for the second.

`O=C1CN=C(C[N+](=O)[O-])c2ccccc21` and `O=C1OC(c2ccccc2)=N/C1=C/C=C/c1ccco1` cannot be ordered by TGI: over 100 µM for the first, over 100 µM for the second.

`CCCCN(CCCC)CC(C(=O)Nc1ccc([N+](=O)[O-])cc1[N+](=O)[O-])/C(C)=N\NC(=S)NN` (stereo not given) and `Cc1ccccc1N1C(=O)/C(=C/c2ccc(N(CCC#N)CCC#N)cc2)N=C1c1cc([N+](=O)[O-])ccc1Cl` cannot be ordered by TGI: over 100 µM for the first, over 100 µM for the second.

`S=C(N/N=C/c1ccco1)NC12CC3CC(CC(C3)C1)C2` and `C=CC1CC12C(=O)C1OC2(C)C2C(=O)c3cc4ccccc4cc3C(=O)C12` (stereo not given) cannot be ordered by TGI: over 100 µM for the first, over 100 µM for the second.

`CC(=O)O.CC(=O)O.CC(=O)O.CC(=O)O.CC(=O)O.CC(=O)O.O.[Ti].[Ti]` and `CC(C)(C)OC(=O)NCC(=O)OCc1ccccc1` cannot be ordered by TGI: over 100 µM for the first, over 100 µM for the second.

`COc1ccc(NC(=O)CCc2cc(-c3ccc(O)c(OC)c3)nc(NC#N)n2)cc1` and `Cc1ccc(SC(C)/C=C/NNC2=NC(c3ccccc3)C(c3ccccc3)=NN2)cc1` (stereo not given) cannot be ordered by TGI: over 100 µM for the first, over 100 µM for the second.

In the case of `Cc1ccc(S(=O)(=O)NCC2CCCCC2=O)cc1` (stereo not given), the TGI is reported as over 100 µM.

`OCCN1CN(CCO)CN(c2nc(N3CN(CCO)CN(CCO)C3)nc(N3CN(CCO)CN(CCO)C3)n2)C1` showed a TGI of 2.04 ng/mL.

Going from `CC(=O)O.CC(=O)O.CC(=O)O.CC(=O)O.CC(=O)O.CC(=O)O.O.[Ti].[Ti]` to `C=CC1CC12C(=O)C1OC2(C)C2C(=O)c3cc4ccccc4cc3C(=O)C12` (stereo not given), the GI50 falls from over 100 µM to 26.7 µM.

Source: PubChem BioAssay (NCI)
